In ChEMBL document CHEMBL6083262, “Stereorandomized Oncocins with Preserved Ribosome Binding and Antibacterial Activity” (J Med Chem, 2024):
Values after ≈ are worked out from the molar mass of the structure shown. Non-standard residues stand in square brackets, D forms with d. Residues, ends and D or L forms follow the SMILES beside them. Orn = NCCC[C@H](N)C(=O)O

Legend:
Enterobacter cloacae [1] = assay: Antibacterial activity against multidrug-resistant Enterobacter cloacae incubated for 16 to 20 hrs in 12.5 % muller hinton medium by broth microdilution method; format: functional; conditions: time 16-20 hrs
Staphylococcus aureus [2] = assay: Antimicrobial activity against methicillin-resistant Staphylococcus aureus COL incubated for 16 to 20 hrs in full muller hinton medium by broth microdilution method; format: functional; conditions: time 16-20 hrs
Pseudomonas aeruginosa [3] = assay: Antibacterial activity against multidrug-resistant Pseudomonas aeruginosa clinical isolate ZEM9A incubated for 16 to 20 hrs in full muller hinton medium by broth microdilution method; format: functional; conditions: time 16-20 hrs
Pseudomonas aeruginosa [4] = assay: Antibacterial activity against multidrug-resistant Pseudomonas aeruginosa PA14 4.18 harboring pmrB mutant incubated for 16 to 20 hrs in full muller hinton medium by broth microdilution method; format: functional; conditions: time 16-20 hrs
Pseudomonas aeruginosa [5] = assay: Antimicrobial activity against Pseudomonas aeruginosa PAO1 incubated for 16 to 20 hrs in full muller hinton medium by broth microdilution method; format: functional; conditions: time 16-20 hrs
Pseudomonas aeruginosa [6] = assay: Antibacterial activity against multidrug-resistant Pseudomonas aeruginosa PA14 4.13 harboring phoQ mutant incubated for 16 to 20 hrs in 12.5 % muller hinton medium by broth microdilution method; format: functional; conditions: time 16-20 hrs
Pseudomonas aeruginosa [7] = assay: Antimicrobial activity against Pseudomonas aeruginosa PAO1 incubated for 16 to 20 hrs in 12.5 % muller hinton medium by broth microdilution method; format: functional; conditions: time 16-20 hrs
Klebsiella pneumoniae [8] = assay: Antibacterial activity against multidrug-resistant Klebsiella pneumoniae clinical isolate OXA-48 incubated for 16 to 20 hrs in 12.5 % muller hinton medium by broth microdilution method; format: functional; conditions: time 16-20 hrs
Pseudomonas aeruginosa [9] = assay: Antibacterial activity against multidrug-resistant Pseudomonas aeruginosa clinical isolate ZEM9A incubated for 16 to 20 hrs in 12.5 % muller hinton medium by broth microdilution method; format: functional; conditions: time 16-20 hrs
Klebsiella pneumoniae [10] = assay: Antibacterial activity against multidrug-resistant Klebsiella pneumoniae clinical isolate OXA-48 incubated for 16 to 20 hrs in full muller hinton medium by broth microdilution method; format: functional; conditions: time 16-20 hrs
Pseudomonas aeruginosa [11] = assay: Antibacterial activity against multidrug-resistant Pseudomonas aeruginosa PA14 2P4 harboring pmrB mutant incubated for 16 to 20 hrs in 12.5 % muller hinton medium by broth microdilution method; format: functional; conditions: time 16-20 hrs
Pseudomonas aeruginosa [12] = assay: Antibacterial activity against multidrug-resistant Pseudomonas aeruginosa PA14 incubated for 16 to 20 hrs in full muller hinton medium by broth microdilution method; format: functional; conditions: time 16-20 hrs
Klebsiella pneumoniae [13] = assay: Antimicrobial activity against Klebsiella pneumoniae NCTC 418 incubated for 16 to 20 hrs in full muller hinton medium by broth microdilution method; format: functional; conditions: time 16-20 hrs
Pseudomonas aeruginosa [14] = assay: Antibacterial activity against multidrug-resistant Pseudomonas aeruginosa PA14 4.13 harboring phoQ mutant incubated for 16 to 20 hrs in full muller hinton medium by broth microdilution method; format: functional; conditions: time 16-20 hrs
Klebsiella pneumoniae [15] = assay: Antimicrobial activity against Klebsiella pneumoniae NCTC 418 incubated for 16 to 20 hrs in 12.5 % muller hinton medium by broth microdilution method; format: functional; conditions: time 16-20 hrs
Pseudomonas aeruginosa [16] = assay: Antibacterial activity against multidrug-resistant Pseudomonas aeruginosa clinical isolate ZEM-1A incubated for 16 to 20 hrs in 12.5 % muller hinton medium by broth microdilution method; format: functional; conditions: time 16-20 hrs
Pseudomonas aeruginosa [17] = assay: Antibacterial activity against multidrug-resistant Pseudomonas aeruginosa PA14 4.18 harboring pmrB mutant incubated for 16 to 20 hrs in 12.5 % muller hinton medium by broth microdilution method; format: functional; conditions: time 16-20 hrs
Acinetobacter baumannii [18] = assay: Antimicrobial activity against Acinetobacter baumannii ATCC 19606 incubated for 16 to 20 hrs in full muller hinton medium by broth microdilution method; format: functional; conditions: time 16-20 hrs
Acinetobacter baumannii [19] = assay: Antimicrobial activity against Acinetobacter baumannii ATCC 19606 incubated for 16 to 20 hrs in 12.5 % muller hinton medium by broth microdilution method; format: functional; conditions: time 16-20 hrs
Staphylococcus aureus [20] = assay: Antimicrobial activity against methicillin-resistant Staphylococcus aureus COL incubated for 16 to 20 hrs in 12.5 % muller hinton medium by broth microdilution method; format: functional; conditions: time 16-20 hrs
Pseudomonas aeruginosa [21] = assay: Antibacterial activity against multidrug-resistant Pseudomonas aeruginosa clinical isolate ZEM-1A incubated for 16 to 20 hrs in full muller hinton medium by broth microdilution method; format: functional; conditions: time 16-20 hrs
Enterobacter cloacae [22] = assay: Antibacterial activity against multidrug-resistant Enterobacter cloacae incubated for 16 to 20 hrs in full muller hinton medium by broth microdilution method; format: functional; conditions: time 16-20 hrs
Escherichia coli [23] = assay: Antimicrobial activity against Escherichia coli W3110 incubated for 16 to 20 hrs in full muller hinton medium by broth microdilution method; format: functional; conditions: time 16-20 hrs
[24] = Hemolytic activity in human RBC incubated for 4 hrs; format: toxicity, cell-based; conditions: erythrocyte
Pseudomonas aeruginosa [25] = assay: Antibacterial activity against multidrug-resistant Pseudomonas aeruginosa PA14 incubated for 16 to 20 hrs in 12.5 % muller hinton medium by broth microdilution method; format: functional; conditions: time 16-20 hrs
Escherichia coli [26] = assay: Antimicrobial activity against Escherichia coli W3110 incubated for 16 to 20 hrs in 12.5 % muller hinton medium by broth microdilution method; format: functional; conditions: time 16-20 hrs
Pseudomonas aeruginosa [27] = assay: Antibacterial activity against multidrug-resistant Pseudomonas aeruginosa PA14 2P4 harboring pmrB mutant incubated for 16 to 20 hrs in full muller hinton medium by broth microdilution method; format: functional; conditions: time 16-20 hrs

Work on `CC[C@H](C)[C@H](NC(=O)[C@H](CCCN)NC(=O)[C@H](CCCNC(=N)N)NC(=O)[C@@H]1CCCN1C(=O)[C@@H]1CCCN1C(=O)[C@H](CCCNC(=N)N)NC(=O)[C@@H]1CCCN1C(=O)[C@H](CCCNC(=N)N)NC(=O)[C@@H]1CCCN1C(=O)[C@H](CC(C)C)NC(=O)[C@H](Cc1ccc(O)cc1)NC(=O)[C@@H]1CCCN1C(=O)[C@@H]1CCCN1C(=O)[C@H](CCCCN)NC(=O)[C@H](CC(=O)O)NC(=O)[C@@H](N)C(C)C)C(=O)N[C@@H](Cc1ccc(O)cc1)C(=O)N[C@@H](CC(N)=O)C(=O)N[C@@H](CCCN)C(N)=O` (H-VDKPPYLPRPRPPR[Orn]IYN[Orn]-NH2) yielded an MIC (Enterobacter cloacae [1]) of 1 µg/mL (≈ 0.434 µM), an MIC (Staphylococcus aureus [2]) of over 64 µg/mL and an MIC (Pseudomonas aeruginosa [3]) of over 64 µg/mL. It also gave an MIC (Pseudomonas aeruginosa [4]) of over 32 µg/mL, an MIC (Pseudomonas aeruginosa [5]) of over 64 µg/mL and an MIC (Pseudomonas aeruginosa [6]) of 32 µg/mL (≈ 13.9 µM). It also gave an MIC (Pseudomonas aeruginosa [7]) of 16 µg/mL (≈ 6.94 µM), an MIC (Klebsiella pneumoniae [8]) of 2 µg/mL (≈ 0.867 µM) and an MIC (Pseudomonas aeruginosa [9]) of 32 µg/mL (≈ 13.9 µM). It also gave an MIC (Klebsiella pneumoniae [10]) of 64 µg/mL (≈ 27.8 µM), an MIC (Pseudomonas aeruginosa [11]) of 16 µg/mL (≈ 6.94 µM) and an MIC (Pseudomonas aeruginosa [12]) of over 32 µg/mL. The MIC (Klebsiella pneumoniae [13]) was 8 µg/mL (≈ 3.47 µM), the MIC (Pseudomonas aeruginosa [14]) was over 32 µg/mL and the MIC (Klebsiella pneumoniae [15]) was 4 µg/mL (≈ 1.73 µM). It also gave an MIC (Pseudomonas aeruginosa [16]) of 16 µg/mL (≈ 6.94 µM), an MIC (Pseudomonas aeruginosa [17]) of 32 µg/mL (≈ 13.9 µM) and an MIC (Acinetobacter baumannii [18]) of 64 µg/mL (≈ 27.8 µM). The MIC (Acinetobacter baumannii [19]) was 8 µg/mL (≈ 3.47 µM), the MIC (Staphylococcus aureus [20]) was over 64 µg/mL and the MIC (Pseudomonas aeruginosa [21]) was over 64 µg/mL. For the same compound, the MIC (Enterobacter cloacae [22]) was 32 µg/mL (≈ 13.9 µM), the MIC (Escherichia coli [23]) was 8 µg/mL (≈ 3.47 µM) and the MHC [24] was over 1000 µg/mL. It also gave an MIC (Pseudomonas aeruginosa [25]) of 32 µg/mL (≈ 13.9 µM), an MIC (Escherichia coli [26]) of 2 µg/mL (≈ 0.867 µM) and an MIC (Pseudomonas aeruginosa [27]) of over 64 µg/mL.
